# According to PMC3720542, “Population pharmacokinetics of mefloquine, piperaquine and artemether-lumefantrine in Cambodian and Tanzanian malaria patients” (Malaria Journal, 2013):
# Where “and” joins values, the source holds several entries; their conditions need not be identical. Identical values can stand only once. Like-named read-outs stand apart in the source and are kept apart here.
# How the values were obtained:
# [1] = clinical; conditions: human, in vivo
# Description: The second study was conducted during October 2007 to February 2008 at the Phnom Dék Health Centre, Rovieng district, Preah Vihear province, Cambodia. Entry criteria and study procedures were identical as in the Tanzanian study with minor adaptations described below. […] Pregnant or lactating women were excluded. Three doses of AS (Arsumax®, Sanofi-Aventis, France) and MQ (Eloquine®, Medochemie Ltd, Cyprus) were given according to body weight on three consecutive days (see Table 1). Patients were seen by the clinical officer on days 1, 2, 3, 7, 14, 21, 28, 35 and 42. Sampling for the pharmacokinetic study was done at pre-dose and approximately 1 h after first dose intake on day 0, and on days 1, 2, 7 and 14 at pre-defined random times after drug intake.
# Samples of 2 ml of venous blood were collected on an EDTA Vacutainer and kept on ice for no longer than 6 h after withdrawal and then aliquoted into whole blood, plasma and pellet and immediately stored in liquid nitrogen or a –80°C freezer. […] The method was validated according to FDA recommendations, including assessment of extraction yield, matrix effect variability, overall process efficiency, standard addition experiments as well as anti-malarials short- and long-term stability in plasma. […] The laboratory is part of the quality control system of the World-Wide Antimalarial Resistance Network (WWARN).
# The pharmacokinetic analysis for each drug taken separately was performed using the NONMEM computer program Version 6 (NM-TRAN version II). It uses mixed (fixed and random) effects regression to estimate population means and variances of the pharmacokinetic parameters and to identify factors that influence them.
# One-, two- and three-compartment pharmacokinetic models with first-order absorption, with and without absorption lag times, were compared. Additional one or two-compartments were used for anti-malarials presenting metabolite concentrations (AM and LF). The final parameters estimated were systemic clearance (CL/F), inter-compartmental clearance (Q/F), central volume of distribution (VC/F), peripheral volume of distribution (VP/F) and absorption rate constant (ka). Since no intravenous drug concentration data were available, these parameters represent apparent values. Where available, metabolite data were included into the model and metabolism rate constant from drug compartment to metabolite compartment (k23) and metabolite clearance (CLmet) were also estimated. Owing to identifiability problems, the volume of distribution of the metabolites (VM) DLF and DHA were assumed to equal LF and AM VC, respectively. […] The observed baseline residual plasma concentrations were fitted by estimating a factor (F0) that provided an estimation of the residual doses from previous treatment.
# Exponential errors following a log-normal distribution were assumed for the description of inter-patient variability of the pharmacokinetic parameters and were of the form: θi=θ×e^ηj where θi is the individual pharmacokinetic parameter value in the j^th individual, θ is the population parameter estimate, and ηj is the random effect value, which is independently and normally distributed with a mean of 0 and variance ω^2. Proportional and combined proportional-and-additive error models were compared to describe intra-patient (residual) variability for the mother compound, and if available for its metabolite using Cpij(1 + ϵ1ij) + ϵ2ij or Cmij(1 + ϵ3ij) + ϵ4ij, where Cpij are the corresponding predicted i^th drug plasma concentration and Cmij are the predicted metabolite concentration for the j^th individual, and ϵ1ij, ϵ2ij, ϵ3ij, ϵ4ij, are independent normally distributed residual error terms with a mean of zero and a variance of σ^2_1, σ^2_2, σ^2_3, σ^2_4.
# The covariate analysis was performed using a stepwise insertion/deletion approach. […]
# [2] = cited from earlier work
# [3] = test system: malaria; design: method as in PMID 10579474; conditions: cited from earlier work
# [4] = test system: malaria; design: method as in earlier work; conditions: listed as LF, cited from earlier work
# [5] = Population pharmacokinetic analysis (NONMEM) of artemether-lumefantrine and metabolites in Tanzanian malaria patients (Kibaoni); assay type: in vivo, human
# Description: Three studies have been conducted, one in Tanzania and two in Cambodia. The study profiles are described in Figure 1. The first study was performed during March to May 2008 at the Kibaoni Health Centre, Kilombero district, Morogoro region, Tanzania. […] Six AM-LF (Coartem®, Novartis Pharma, Switzerland) doses were administered at time 0, 8, […] according to body weight (see Table 1); patients were either admitted for three days or asked to come back to the health facility for each drug administration. Mothers of breastfed patients were encouraged to feed their children and patients admitted were provided with food. Patients who reported that they have not eaten within two hours to prior dose intake were instructed to eat as soon as possible. Patients were seen by the clinical officer on days 0, 1, 2, 3, 7, 14, 28, and 42. A blood sample for pharmacokinetic measurement was taken at baseline (pre-dose on day 0) and on days 1, 2, and 7 at pre-defined random times after the last dosing. At each visit, a filter paper sample and a thin and thick smear were taken, in addition to axillary temperature, respiratory rate and haemoglobin measurements (only on days 0, 28 and 42) as well as evaluation of symptoms (e.g. headache, vomiting, and diarrhea). The exact dose and time of last drug intake, body weight, height, age, sex, food intake and concomitant medications were carefully recorded. If patients suffered from concomitant illnesses they were provided with additional treatment (paracetamol, mebendazole, metronidazole, cloxacillin, amoxicillin). Samples of 2 ml of venous blood were collected on an EDTA Vacutainer and kept on ice for no longer than 6 h after withdrawal and then aliquoted into whole blood, plasma and pellet and immediately stored in liquid nitrogen or a -80°C freezer. […] The laboratory is part of the quality control system of the World-Wide Antimalarial Resistance Network (WWARN). The pharmacokinetic analysis for each drug taken separately was performed using the NONMEM computer program Version 6 (NM-TRAN version II). It uses mixed (fixed and random) effects regression to estimate population means and variances of the pharmacokinetic parameters and to identify factors that influence them. One-, two- and three-compartment pharmacokinetic models with first-order absorption, with and without absorption lag times, were compared. Additional one or two-compartments were used for anti-malarials presenting metabolite concentrations (AM and LF). The final parameters estimated were systemic clearance (CL/F), inter-compartmental clearance (Q/F), central volume of distribution (VC/F), peripheral volume of distribution (VP/F) and absorption rate constant (ka). Since no intravenous drug concentration data were available, these parameters represent apparent values. Where available, metabolite data were included into the model and metabolism rate constant from drug compartment to metabolite compartment (k23) and metabolite clearance (CLmet) were also estimated. Owing to identifiability problems, the volume of distribution of the metabolites (VM) DLF and DHA were assumed to equal LF and AM VC, respectively. […] The observed baseline residual plasma concentrations were fitted by estimating a factor (F0) that provided an estimation of the residual doses from previous treatment. […] Proportional and combined proportional-and-additive error models were compared to describe intra-patient (residual) variability for the mother compound, and if available for its metabolite using Cpij(1 + ε1ij) + ε2ij or Cmij(1 + ε3ij) + ε4ij, where Cpij are the corresponding predicted i^th drug plasma concentration and Cmij are the predicted metabolite concentration for the j^th individual, and ε1ij, ε2ij, ε3ij, ε4ij, are independent normally distributed residual error terms with a mean of zero and a variance of σ^2_1, σ^2_2, σ^2_3, σ^2_4. The covariate analysis was performed using a stepwise insertion/deletion approach. […]
# [6] = patients, median age 9.3 (4–15) years, n 74, sampling 28 days
# [7] = patients, median age 14.8 (8–61) years, n 128, sampling 28 days
# [8] = patients, median age 19 (2–55) years, n 50, sampling 63 days
# [9] = prophylaxis, mean age 26 (18–55) years, n 1,111, sampling 26 weeks
# [10] = patients, age 7.7 ± 1.4 years, n 13, sampling 28 days
# [11] = patients, median age 4.0 (1–10) years, n 50, sampling 72 h
# [12] = patients, median age 20 (5–66) years, n 309
# [13] = patients, median age 22 (14–60) years, n 217
# [14] = patients, median age 23 (13–59) years, n 102
# [15] = pregnant women, median age 24 (15–42) years, n 103, sampling 336 h
# [16] = bootstrap evaluation, 200 replicates
structure (smiles),measurement,setting,value
"OC(c1cc(C(F)(F)F)nc2c(C(F)(F)F)cccc12)C1CCCCN1 (centres unmarked) [Mefloquine, mefloquine]","CL (clearance), population estimate",[1],0.10 × BW^0.75 L/h/kg
same,"CL, bootstrap mean of 200",[1],0.10 × BW^0.75 L/h/kg
same,"F0 (residual amount from the previous treatment), population estimate",[1],33.1 mg
same,"F0, bootstrap mean of 200",[1],31.0 mg
same,IIV (inter-individual variability) of CL,[1],12%
same,IIV (inter-individual variability) of F0,[1],175%
same,IIV (inter-individual variability) of VC,[1],19%
same,"VC (central volume of distribution), population estimate",[1],8.93 × BW L/kg
same,"VC, bootstrap mean of 200",[1],9.01 × BW L/kg
same,Vd,[1],625 L
same,clearance,[1],40 mL/min
same,inter-individual variability in concentration exposure,[1],~12%
same,"ka (first-order absorption rate constant), population estimate",[1],0.15 h⁻¹
same,"ka, bootstrap mean of 200",[1],0.15 h⁻¹
same,residual dose (F0) as percentage of an initial dose,[1],6.7–26.7%
same,"σC, bootstrap mean of 200",[1],43%
same,"σC, residual error for the central compartment, population estimate",[1],43%
same,"CL, population estimate for a person of 70 kg",[2]; [6],3.71 L/h
same,"VSS, population estimate for a person of 70 kg",[2]; [6],"1,089.2 L"
same,"CL, population estimate for a person of 70 kg",[2]; [7],1.4 L/h
same,"VSS, population estimate for a person of 70 kg",[2]; [7],574.7 L
same,"CL, population estimate for a person of 70 kg",[2]; [8],2.1 L/h
same,"VSS, population estimate for a person of 70 kg",[2]; [8],767.62 L
same,"CL, population estimate for a person of 70 kg",[2]; [9],1.75 L/h
same,"VSS, population estimate for a person of 70 kg",[2]; [9],863 L
same,"minimal inhibitory concentration, MIC (drug plasma concentration)",[3],0.5 µg/mL
"CCCCN(CCCC)CC(O)c1cc(Cl)cc2c1-c1ccc(Cl)cc1/C2=C/c1ccc(Cl)cc1 (centres unmarked) [Lumefantrine, lumefantrine]",efficacy rates at 42 days for a day 7 concentration cut-off of 50 ng/ml,[4]; high transmission areas,80% and 95%
same,efficacy rates at 42 days for a day 7 concentration cut-off of 125 ng/ml,[4]; low transmission areas,84% and 96%
same,"CL, population estimate for a person of 70 kg",[2]; [10],7.29 L/h
same,"VSS, population estimate for a person of 70 kg",[2]; [10],506 L
same,"CL, population estimate for a person of 70 kg",[2]; [11],5.4 L/h
same,"VSS, population estimate for a person of 70 kg",[2]; [11],623 L
same,"CL, population estimate for a person of 70 kg",[2]; [12],7.6 L/h
same,"VSS, population estimate for a person of 70 kg",[2]; [12],361 L
same,"CL, population estimate for a person of 70 kg",[2]; [13],21 L/h
same,"VSS, population estimate for a person of 70 kg",[2]; [13],301 L
same,"CL, population estimate for a person of 70 kg",[2]; [14],7 L/h
same,"VSS, population estimate for a person of 70 kg",[2]; [14],298 L
same,"CL, population estimate for a person of 70 kg",[2]; [15],8.7 L/h
same,"VSS, population estimate for a person of 70 kg",[2]; [15],257 L
same,patients with a concentration below the cut-off value of 175 ng/ml,"[5]; Tanzanian sample of this study, day 7",35%
same,"F0, bootstrap mean of 200",[5]; [16],2.45 mg
same,"k23, bootstrap mean of 200",[5]; [16],0.00037 h⁻¹
same,"ka, bootstrap mean of 200",[5]; [16],0.48 h⁻¹
same,"θBWCL, bootstrap mean of 200",[5]; [16],0.51
same,"θBWVC, bootstrap mean of 200",[5]; [16],0.34
same,"σC (CV%), bootstrap mean of 200",[5]; [16],61%
same,IIV (inter-individual variability) of CL,[5]; final model,38%
same,IIV (inter-individual variability) of F0,[5]; final model,103%
same,IIV (inter-individual variability) of VC,[5]; final model,33%
same,IIV (inter-individual variability) of k23,[5]; final model,38%
same,"ka (first-order absorption rate constant), population estimate",[5]; final model,0.54 h⁻¹
same,"θBWVC, exponent of allometric power function of body weight on VC, population estimate",[5]; final model,0.35
same,"F0 (residual amount from the previous treatment), population estimate","[5]; final model, baseline",2.53 mg
same,"σC (CV%), residual error for the central compartment, population estimate","[5]; final model, intra-patient variability",60%
same,"k23 (metabolism rate constant), population estimate","[5]; final model, parent to metabolite (AM to DHA, LF to DLF)",0.00037 h⁻¹
same,residual dose (F0) as percentage of the recommended first dose,[5]; first dose 120–480 mg,0.3–1.3%
same,clearance,"[5]; human, plasma, oral, present study, Tanzanian patients, sampling 7 days",128 mL/min
same,Vd,"[5]; human, plasma, oral, present study, Tanzanian patients, sampling 7 days, read-out: VSS (steady-state volume of distribution), population estimate for a person of 70 kg",265 L
